From US20080064027A1, “TEL/Etv6-mediated inhibition of cell proliferation” (priority 2002, published 2008)
Like-named read-outs stand apart in the source and are kept apart here.

Assays:
parent A375 cells = assay: Proliferation of parent A375 cells; conditions: 4HT 1 microM
A375-Stat3-ER cells [1] = conditions: for reduction of A375-Stat3ER cell number: 3 days
Method: In order to evaluate the role of Stat3 in A375 cell proliferation, A375-Stat3-ER cells were grown in the presence of OSM or 4HT and cell number determined over 3 days.

[2] = test system: Stat3 transcriptional activity; assay: APRE-driven luciferase reporter assay; assay type: cell-based; conditions: for Relative Luciferase Activity: 24 hours, control = 1; for Stat3-dependent transcription of luciferase, increase over control: Stat3-ER-expressing A375, without TEL siRNA
Excerpt: Luciferase assays are used to verify that the Stat3-ER construct is transcriptionally active. For this purpose, a luciferase reporter gene driven by the acute-phase response element (APRE) of the alpha 2-macroglobulin gene, a target for Stat1 and Stat3, was used.
Cells (2×10^6 cells/6 well dish) were transfected with a reporter plasmid containing four copies of acute phase responsible element (APRE) upstream of the minimal junB promoter linked to the luciferase gene (T Hirano, EMBO Journal, 1996, 15, 3651-3658), together with the internal control plasmid pRL-SV40 from Promega (Madison, Wis.). Twenty-four hours after the transfection, cells were either left unstimulated or stimulated with OSM (PeproTechEC, London, United Kingdom), 4-hydroxytamoxifen (4HT; Sigma, St. Louis, Mo.) or a combination of 4HT/OSM for 24 hours. The preparation of cell extracts and measurement of luciferase activities were carried out using the Dual-Luciferase reporter assay system from Promega (Madison, Wis.) in an Autolumat LB 953 (Berthold Technologies, Wildbad, Germany). Changes in firefly luciferase activity were expressed relative to Renilla luciferase activity in the same sample.

TEL [3] = assay: TEL protein level by Western blotting; assay type: cell-based; conditions: for TEL isoforms (TEL and TEL43) expression: ASER cells
Method: Protein analysis was carried out by Western blotting. In brief, cells were harvested in NP40 extraction buffer (50 mM Tris (pH 7.5), 1 mM EGTA, 5 mM EDTA, 120 mM NaCl, 1% NP40, 2 mM sodium orthovanadate, 50 mM sodium fluoride, 20 mM ? -glycerophosphate, 10 μg/ml leupeptin, 10 μg/ml aprotinin, and 0.5 mM phenylmethylsulfonyl fluoride) for 5 min on ice. The lysates were clarified by centrifugation and protein concentrations were determined using the Bio-Rad protein assay reagent (Bio-Rad Laboratories Gmbh, Munich, Germany). For immunoprecipitaton, equal amounts of proteins were incubated with Stat3 (C-20) from Santa Cruz Biotechnology (Santa Cruz, Calif.) for 1 hr. Following SDS-polyacrylamide gel eletrophoresis (SDS-PAGE), proteins were blotted onto polyvinylidene difluoride membranes (Boehringer Mannheim, Mannheim, Germany). After blocking with 10% horse serum (Life Technologies, Inc.) in 50 mM Tris pH 7.5, 150 mM NaCl, 0.05% Tween 20, filters were probed with specific antibodies; c-TEL, Stat3 (C-20) from Santa Cruz Biotechnology (Santa Cruz, Calif.), phospho-Stat3 (Tyr 705) from Cell Signaling Technology (Beverly, Mass.). Proteins were visualized with peroxidase-coupled secondary antibodies using the enhanced chemiluminescence detection system (Amersham Pharmacia Biotech, Little Chalfont, United Kingdom).

C/EBPdelta mRNA = assay: C/EBPdelta expression (quantitative PCR); assay type: cell-based; conditions: quantitative PCR
Method: A LacZ siRNA was used as control. The designed RNA oligonucleotides were ‘blasted’ against the GENBANK/EMBL databank to ensure gene specificity. The RNA oligonucleotides were obtained commercially. Transfection with expression vectors was carried out 1 day after the siRNA transfection using Effectene.

A375-Stat3-ER cells [4] = conditions: for effect on cell cycle profile: A375-Stat3-ER cells
Method: In brief, cells were harvested at the indicated times (24, 48 and 72 h) washed three times with ice-cold PBS and resuspended in propidium iodide buffer (1 mM sodium citrate (pH 4.0), 1.5 mM NaCl, 5 mM EDTA, 5 mM EGTA, 0.1% NP40, 4 mg/ml propidium iodide and 80 mg/ml of RNase A). After 30 min incubation in the dark on ice, cell cycle distribution was measured with a Becton Dickinson FACS can flow cytometer.

Stat3-ER = molecular target: T1, Stat3-ER (UniProt P19785+P40763, G525R); assay: Stat3 oligonucleotide DNA binding assay on nuclear extracts; assay type: cell-based
T1 construct: expressed in transfected cells
T1 sequence (P40763+P19785 fused P19785:G525R): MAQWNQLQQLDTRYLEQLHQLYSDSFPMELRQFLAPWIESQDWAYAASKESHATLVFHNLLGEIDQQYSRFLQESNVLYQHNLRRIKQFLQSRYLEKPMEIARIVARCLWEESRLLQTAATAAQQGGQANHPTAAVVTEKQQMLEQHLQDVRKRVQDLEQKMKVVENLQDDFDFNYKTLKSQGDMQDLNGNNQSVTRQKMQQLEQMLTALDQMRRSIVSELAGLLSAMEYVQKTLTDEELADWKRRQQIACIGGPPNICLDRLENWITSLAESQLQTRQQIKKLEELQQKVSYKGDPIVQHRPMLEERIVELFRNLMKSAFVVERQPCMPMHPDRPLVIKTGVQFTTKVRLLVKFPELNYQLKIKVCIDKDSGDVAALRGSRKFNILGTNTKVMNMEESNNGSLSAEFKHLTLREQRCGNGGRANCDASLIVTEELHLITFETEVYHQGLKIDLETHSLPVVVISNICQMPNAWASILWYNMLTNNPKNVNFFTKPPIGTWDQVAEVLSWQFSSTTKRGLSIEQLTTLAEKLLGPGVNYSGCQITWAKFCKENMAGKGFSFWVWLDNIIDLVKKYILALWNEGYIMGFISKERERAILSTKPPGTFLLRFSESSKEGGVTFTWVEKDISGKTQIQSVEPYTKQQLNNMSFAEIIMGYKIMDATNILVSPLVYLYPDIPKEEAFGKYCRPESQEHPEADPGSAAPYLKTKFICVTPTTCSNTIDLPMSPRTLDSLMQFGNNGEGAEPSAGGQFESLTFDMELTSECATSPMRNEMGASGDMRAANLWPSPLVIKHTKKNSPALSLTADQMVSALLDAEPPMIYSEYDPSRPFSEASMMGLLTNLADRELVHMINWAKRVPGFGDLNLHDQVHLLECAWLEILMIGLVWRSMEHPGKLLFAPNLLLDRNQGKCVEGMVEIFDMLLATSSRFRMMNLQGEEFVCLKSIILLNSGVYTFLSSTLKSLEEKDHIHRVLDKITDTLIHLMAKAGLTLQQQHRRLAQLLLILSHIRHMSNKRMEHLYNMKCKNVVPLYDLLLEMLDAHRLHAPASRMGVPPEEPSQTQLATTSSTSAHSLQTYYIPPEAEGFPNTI
Method: DNA binding assays were carried out using cells stimulated with 4HT (1 microM) for 0, 0.3, 1, 2, 4 and 24 hours. […] Samples were centrifuged and the pellet was washed two more times with binding buffer. Proteins were eluted from beads by boiling in 25 microliters of 2× loading buffer (1% DTT, 4% SDS, 20% Glycerol, 0.02% Bromophenol Blue, 0.25 M TrisHCl 1M 6.8 pH) and SDS-PAGE was performed.
DNA binding of Stat3-ER and endogenous Stat3 was monitored by performing Western analysis on the oligonucleotide-bound proteins.

Stat3 = assay: TEL-Stat3 interaction, immunoprecipitation from nuclear extracts; assay type: binding
Method: Since the TEL DNA-binding domain is not required for repression of Stat3 activity, this Example tests the possibility that TEL interacts directly with Stat3. Extracts from nuclear-enriched fractions were prepared from control or OSM-stimulated A375 cells. […] Endogenous TEL was present in Stat3 immunoprecipitates and the levels of TEL associating with Stat3 increased in OSM-treated compared to control-treated nuclear extracts. Conversely, Stat3 is present in a TEL-containing complex, pulled down through an immobilized GGM-containing oligonucleotide, which is a binding site for TEL.

TEL [5] = assay: TEL expression in human cancer cell lines; assay type: cell-based
Excerpt: TEL is usually expressed as two protein isoforms corresponding to initiation of TEL mRNA translation at ATG codon 1 and 43 (TEL and TEL43). […] To ascertain if TEL is a natural target of Stat3, we examined its expression in human cancer cell lines in response to OSM or IL-6. […] However, TEL expression was unchanged in other cell lines, including the prostate cancer cells PC3 and LNCaP and MDA-MB-468 breast cancer cells, even though it was expected that Stat3 is activated in each of these cell lines by IL-6/OSM treatment.

[6] = 24 h, 4HT 1 microM, OSM 100 ng/ml, control 1.48
[7] = 48 h, 4HT 1 microM, OSM 100 ng/ml, control 4.33
[8] = 72 h, 4HT 1 microM, OSM 100 ng/ml, control 7.83
[9] = 4HT 1 microM, Stat3-ER expressing A375 cells
[10] = nuclear lysates of OSM-stimulated A375 cells

## CCC(=C(c1ccc(O)cc1)c1ccc(OCCN(C)C)cc1)c1ccccc1 [4HT, 4-hydroxytamoxifen, reference compound]
Parent A375 cells
  proliferation of the parent A375 cells: does not affect proliferation
A375-Stat3-ER cells [1]; 0 h (start of treatment)
  Number of Cells: 0.8 ×10^5
A375-Stat3-ER cells [1]; 4HT 1 microM, OSM 100 ng/ml
  reduction of A375-Stat3ER cell number: about 40%
A375-Stat3-ER cells [1]; [6]
  Number of Cells: 1.49 ×10^5
A375-Stat3-ER cells [1]; [7]
  Number of Cells: 3.60 ×10^5
A375-Stat3-ER cells [1]; [8]
  Number of Cells: 4.44 ×10^5
[2]; [9]
  Relative Luciferase Activity: 29
  stimulation of transcription from the APRE: more efficiently than 100 ng/ml OSM
[2]
  Stat3-dependent transcription of luciferase, increase over control: about 6 fold
TEL [3]; Stat3-ER-expressing A375 cells
  TEL protein level upon treatment: strongly increased
TEL [3]; after 24 hrs of treatment
  TEL isoforms (TEL and TEL43) expression: strongly increased
TEL [3]; within 8 hrs of 4HT addition
  TEL isoforms (TEL and TEL43) expression: significantly increased
C/EBPdelta mRNA
  C/EBPdelta mRNA: significantly increased
A375-Stat3-ER cells [4]; 24 h
  Apoptotic cells: <1%
  G1 (change in percentage of cells): +1%
  G2/M (change in percentage of cells): +2%
  S (change in percentage of cells): −3%
A375-Stat3-ER cells [4]; 48 h
  Apoptotic cells: <1%
  G2/M (change in percentage of cells): −6%
  S (change in percentage of cells): +1%
A375-Stat3-ER cells [4]; 72 h
  G1 (change in percentage of cells): −1%
  G2/M (change in percentage of cells): +1%
  S (change in percentage of cells): 0%
A375-Stat3-ER cells [4]; 72 h (3 days)
  Apoptotic cells: <1%
A375-Stat3-ER cells [4]
  effect on cell cycle profile: only marginally affected
A375-Stat3-ER cells [4]; A375 Stat3-ER cells
  entry into S phase after release of cells synchronized in G1: delayed relative to control cells
Stat3-ER; 4HT 1 microM
  earliest time at which Stat3ER-DNA binding was detected after stimulation: 20 min
  time of maximum measured Stat3ER-DNA binding: 24 h
Stat3-ER; 4HT 1 microM, Stat3-ER-expressing A375 cells
  Stat3-ER nuclear translocation and DNA binding to Stat3-specific oligonucleotide probe: induced nuclear translocation and DNA-binding

## oncostatin M [OSM]
Stat3; OSM-treated compared to control-treated nuclear extracts
  levels of TEL associating with Stat3 in Stat3 immunoprecipitates: increased
Stat3; [10]
  nuclear Stat3 levels: expected increase in Stat3 levels
  nuclear content of TEL: not affected
TEL [5]; PC3, LNCaP prostate cancer cells and MDA-MB-468 breast cancer cells
  TEL expression: unchanged
TEL [5]; T47D and SKBr-3 breast cancer cells, DU145 prostate carcinoma cells, HepG2 hepatoma-derived cells
  TEL expression: significantly increased
A375-Stat3-ER cells [1]; 0 h (start of treatment)
  Number of Cells: 0.8 ×10^5
A375-Stat3-ER cells [1]; 4HT 1 microM, OSM 100 ng/ml
  reduction of A375-Stat3ER cell number: about 40%
A375-Stat3-ER cells [1]; [6]
  Number of Cells: 1.15 ×10^5
A375-Stat3-ER cells [1]; [7]
  Number of Cells: 2.58 ×10^5
A375-Stat3-ER cells [1]; [8]
  Number of Cells: 4.35 ×10^5
[2]; A375 cells
  activation of Stat3 transcriptional activity among IL-6 family members tested (IL-6, LIF): most potent activator
[2]; OSM 1 ng/ml, Stat3-ER expressing A375 cells
  Relative Luciferase Activity: 3
[2]; OSM 10 ng/ml, Stat3-ER expressing A375 cells
  Relative Luciferase Activity: 9
[2]; OSM 100 ng/ml, Stat3-ER expressing A375 cells
  Relative Luciferase Activity: 18
[2]
  Stat3-dependent transcription of luciferase, increase over control: about 9 fold
A375-Stat3-ER cells [4]
  effect on cell cycle profile: little effect
Stat3-ER; cells pretreated with 4HT for 24 hrs
  endogenous Stat3 DNA binding after OSM addition: could be detected 15 min after addition of OSM and decreased after 1 hr of treatment
Stat3-ER; cells pretreated with 4HT for 24 hrs, remained bound for the entire course
  Stat3-ER DNA binding in the presence of OSM: enhanced
